In patent US20250114350A1, “INHIBITORS OF […] AS ANTIFUNGAL AGENTS” (Regents of the University of Minnesota, priority 2023, published 2025):

The compounds below were run against CnFTase (C. neoformans farnesyl transferase, α/β heterodimer) (Cryptococcus neoformans, UniProt J9VSJ6+T2BPA1) (assay: CnFTase activity assay: farnesylation of a dansylated (fluorescent) peptide, inhibitor concentration giving half-maximal enzyme rates at 1 μM FPP (1μMIC50)). Conditions: read-out: CnFTase IC50 (1μMIC50), condition A: 20 nM CnFTase, dansyl-GCVVM 0.62 μM, Tris-HCl pH 7.5, ZnCl2 12.5 μM, 2.5% DMSO, room temperature, triplicate.
Sequence of CnFTase (C. neoformans farnesyl transferase, α/β heterodimer) (J9VSJ6 entry or part of it): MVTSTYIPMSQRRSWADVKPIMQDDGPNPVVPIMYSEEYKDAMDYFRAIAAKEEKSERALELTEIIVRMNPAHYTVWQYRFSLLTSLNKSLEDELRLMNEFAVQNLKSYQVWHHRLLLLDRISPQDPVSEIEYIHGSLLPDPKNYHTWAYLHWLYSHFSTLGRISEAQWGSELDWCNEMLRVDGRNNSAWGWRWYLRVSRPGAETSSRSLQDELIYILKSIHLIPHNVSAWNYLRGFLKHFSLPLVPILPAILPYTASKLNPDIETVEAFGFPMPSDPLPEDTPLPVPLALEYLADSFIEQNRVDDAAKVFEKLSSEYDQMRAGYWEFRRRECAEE
Sequence of CnFTase (C. neoformans farnesyl transferase, α/β heterodimer) (T2BPA1 entry or part of it): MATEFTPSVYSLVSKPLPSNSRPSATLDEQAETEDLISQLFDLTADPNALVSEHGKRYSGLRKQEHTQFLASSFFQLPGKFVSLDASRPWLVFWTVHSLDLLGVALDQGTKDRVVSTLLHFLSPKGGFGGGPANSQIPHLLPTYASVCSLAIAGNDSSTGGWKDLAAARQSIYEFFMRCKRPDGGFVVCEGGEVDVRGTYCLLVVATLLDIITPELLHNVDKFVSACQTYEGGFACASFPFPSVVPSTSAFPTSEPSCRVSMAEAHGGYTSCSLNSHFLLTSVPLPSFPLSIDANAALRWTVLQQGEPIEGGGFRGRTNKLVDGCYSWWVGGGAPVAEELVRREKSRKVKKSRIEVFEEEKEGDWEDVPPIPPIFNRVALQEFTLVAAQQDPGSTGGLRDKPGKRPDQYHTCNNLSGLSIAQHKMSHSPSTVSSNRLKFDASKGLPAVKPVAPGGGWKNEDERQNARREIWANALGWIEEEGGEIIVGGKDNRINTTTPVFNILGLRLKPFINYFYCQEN
Experimental: CnFTase activity assay. […] Final CnFTase concentrations (from 5× or 10× stocks in 20 mM Tris-HCl pH7.5, 20 mM NaCl, 5 μM ZnCl2, 1 mM TCEP, 1 mg/mL BSA): A, 20 nM; B: 4.4, 6.7, 10 nM triplets. […] For experiments that included phosphate, pH 7.5 stock was added to the desired final concentration. […] Data for determining ^1μMIC50 values (condition A) was collected in triplicate. Initial rates, vo, were extracted by fitting a straight line to the initial to tmax seconds of the reaction progress curves, where tmax values were selected by inspection and entered into curator tables for automated analysis. 1μMIC50 were determined by fitting a single-site Langmuir ligand-binding isotherm to the dependence of vo on inhibitor concentration (2, see below). All other experiments (condition B) all other experiments (condition B) used three different CnFTase concentrations, collecting progress curves as a function of FPP, inhibitor, and phosphate concentrations. The resulting triplet of progress curves was used to extract vo values automatically by minimizing
Single-site binding isotherms. Signals, S, resulting from a binding reaction were fit to
where α and β are the baselines associated with the apo-protein and its ligand complex, respectively, and y fractional occupancy of the binding site
If x is an inhibitor concentration, then IC50=Ka^−1. […] In general, baseline signals, σ, (α or β) can be constant, or linear functions of ligand concentration x

IC50	Compound
100 ± 10 nM	CCCC[C@H]1CN(c2cccc(Cl)c2)C(=O)CN1Cc1cncn1Cc1ccc(C#N)cc1 [Compound 2a, (S)-4-((5-((2-Butyl-4-(3-chlorophenyl)-5-oxopiperazin-1-yl)methyl)-1H-imidazol-1-yl)methyl)benzonitrile]
1600 ± 800 nM	CCCC[C@H]1CN(c2cccc(Cl)c2)C(=O)CN1Cc1cncn1Cc1ccc(Cl)cc1 [Compound 2c, (S)-5-Butyl-4-((1-(4-chlorobenzyl)-1H-imidazol-5-yl)methyl)-1-(3-chlorophenyl)piperazin-2-one]
340 ± 220 nM	CCCC[C@H]1CN(c2cccc(OC(F)(F)F)c2)C(=O)CN1Cc1cncn1Cc1ccc(C#N)cc1 [Compound 2d, (S)-4-((5-((2-butyl-5-oxo-4-(3-(trifluoromethoxy)-phenyl)piperazin-1-yl)methyl)-1H-imidazol-1-yl)methyl)benzonitrile]
710 ± 240 nM	CCCC[C@H]1CN(c2cccc(OC(F)(F)F)c2)C(=O)CN1Cc1cncn1Cc1ccc(F)cc1 [Compound 2g, (S)-5-butyl-4-((1-(4-fluorobenzyl)-1H-imidazol-5-yl)methyl)-1-(3-(trifluoromethoxy)phenyl)piperazin-2-one]
1900 ± 1700 nM	CCCC[C@H]1CN(c2cccc(OC(F)(F)F)c2)C(=O)CN1Cc1cncn1Cc1ccccc1 [Compound 2i, (S)-4-((1-Benzyl-1H-imidazol-5-yl)methyl)-5-butyl-1-(3-(trifluoromethoxy)phenyl)piperazin-2-one]
160 ± 20 nM	CCCCC[C@H]1CN(c2cccc(OC(F)(F)F)c2)C(=O)CN1Cc1cncn1Cc1ccc(Br)cc1 [Compound 2l, (S)-4-((1-(4-Bromobenzyl)-1H-imidazol-5-yl)methyl)-5-pentyl-1-(3-(trifluoromethoxy)phenyl)piperazin-2-one]
920 ± 510 nM	CCCC[C@H]1CN(c2ccccc2)C(=O)CN1Cc1cncn1Cc1ccc(Br)cc1 [Compound 2m, (S)-4-((1-(4-Bromobenzyl)-1H-imidazol-5-yl)methyl)-5-butyl-1-phenylpiperazin-2-one]
740 ± 310 nM	CCCC[C@H]1CN(c2cccc(OC(F)(F)F)c2)C(=O)CN1Cc1cncn1Cc1cccc(C#N)c1 [Compound 2o, (S)-3-((5-((2-Butyl-5-oxo-4-(3-(trifluoromethoxy)-phenyl)piperazin-1-yl)methyl)-1H-imidazol-1-yl)methyl)benzonitrile]
180 ± 100 nM	CCCC[C@H]1CN(c2cccc(OC(F)(F)F)c2)C(=O)CN1Cc1cncn1Cc1ccc(F)c(C#N)c1 [Compound 2p, (S)-5-((5-((2-Butyl-5-oxo-4-(3-(trifluoromethoxy)phenyl)piperazin-1-yl)methyl)-1H-imidazol-1-yl)methyl)-2-fluorobenzonitrile]
550 ± 30 nM	N#Cc1cc(Cn2cncc2CN2CCN(c3cccc(OC(F)(F)F)c3)C(=O)C2)ccc1F [Compound 2r, 2-Fluoro-5-((5-((3-oxo-4-(3-(trifluoromethoxy)phenyl)piperazin-1-yl)methyl)-1H-imidazol-1-yl)methyl)benzonitrile]
210 ± 100 nM	CCCC[C@H]1CN(c2cccc(OC(F)(F)F)c2)C(=O)CN1Cc1cncn1Cc1ccc(Oc2ccccc2)c(C#N)c1 [Compound 2t, (S)-5-((5-((2-Butyl-5-oxo-4-(3-(trifluoromethoxy)phenyl)-piperazin-1-yl)methyl)-1H-imidazol-1-yl)methyl)-2-phenoxybenzonitrile]
320 ± 100 nM	N#Cc1cc(Cn2cncc2CN2CCN(c3cccc(OC(F)(F)F)c3)C(=O)C2)ccc1Oc1ccccc1 [Compound 2v]

Compound	IC50
CCCC[C@H]1CN(c2cccc(Cl)c2)C(=O)CN1Cc1cncn1Cc1ccc(Br)cc1 [Compound 2b, (S)-4-((1-(4-Bromobenzyl)-1H-imidazol-5-yl)methyl)-5-butyl-1-(3-chlorophenyl)piperazin-2-one]	1100 ± 780 nM
